Columns and labels:
[1] = plasma, healthy adult males, single oral beverage supplying 550 mg choline, after overnight fasting; ranking among the three supplements
Source text: Study: a randomized cross-over study on 12 adult male subjects.
Subjects: 12 healthy adult male subjects (3 placebo and 9 test supplement (each supplement group-3 subjects)) who are between 30 and 60 years of age.
Duration: One-day oral administration of a choline supplement was followed by 1 week of wash-out before the start of administration of the next (different) choline supplement.
Subjects took each of the three supplements in randomized sequence with interspersed wash-out periods of 1 week. […] The beverages were consumed in the morning after overnight fasting. Blood (2.7 ml EDTA) was taken before intake (−0.1 h) and at 0.5, 1, 1.5, 2, 3, 4, 5, and 6 h after intake. Collected blood was immediately centrifuged at 1000×g at room temperature for 10 min. Plasma was separated and stored at −80° C. until analysis. […] Equipment for analysis: TSQ Quantum Discovery MAX tandem mass spectrometer, a Finnigan Surveyor Autosampler Plus, and a Finnigan Surveyor MS Pump Plus (Thermo Fisher Scientific, Dreieich, Germany), and choline, betaine were separated on a Polaris Si-A® column at 40° C. and the components were analyzed.

[2] = system: isolated mitochondria; conditions: rat liver mitochondria incubated 15 min at 37° C. with test substrate, LC-MS/MS; compared with choline chloride
Experimental: Livers from male Wistar rats were homogenized using a Teflon®-glass Potter-Elvehjem homogenizer in the isolation medium containing 0.25 M sucrose, 0.02 M Tris-HCl, 0.001 M EDTA, pH 7.2. The homogenates prepared in this way were centrifuged at 600 g for 10 min at 4° C. to precipitate nuclei and cell debris. Then the supernatant was separated from the sediment and subjected to centrifugation at 8500 g for 10 min at 4° C. to precipitate mitochondria.

[3] = molecular target: neuronal insulin receptor (Homo sapiens, UniProt P06213); conditions: cited from earlier work
Chain of neuronal insulin receptor (P06213 28-1382): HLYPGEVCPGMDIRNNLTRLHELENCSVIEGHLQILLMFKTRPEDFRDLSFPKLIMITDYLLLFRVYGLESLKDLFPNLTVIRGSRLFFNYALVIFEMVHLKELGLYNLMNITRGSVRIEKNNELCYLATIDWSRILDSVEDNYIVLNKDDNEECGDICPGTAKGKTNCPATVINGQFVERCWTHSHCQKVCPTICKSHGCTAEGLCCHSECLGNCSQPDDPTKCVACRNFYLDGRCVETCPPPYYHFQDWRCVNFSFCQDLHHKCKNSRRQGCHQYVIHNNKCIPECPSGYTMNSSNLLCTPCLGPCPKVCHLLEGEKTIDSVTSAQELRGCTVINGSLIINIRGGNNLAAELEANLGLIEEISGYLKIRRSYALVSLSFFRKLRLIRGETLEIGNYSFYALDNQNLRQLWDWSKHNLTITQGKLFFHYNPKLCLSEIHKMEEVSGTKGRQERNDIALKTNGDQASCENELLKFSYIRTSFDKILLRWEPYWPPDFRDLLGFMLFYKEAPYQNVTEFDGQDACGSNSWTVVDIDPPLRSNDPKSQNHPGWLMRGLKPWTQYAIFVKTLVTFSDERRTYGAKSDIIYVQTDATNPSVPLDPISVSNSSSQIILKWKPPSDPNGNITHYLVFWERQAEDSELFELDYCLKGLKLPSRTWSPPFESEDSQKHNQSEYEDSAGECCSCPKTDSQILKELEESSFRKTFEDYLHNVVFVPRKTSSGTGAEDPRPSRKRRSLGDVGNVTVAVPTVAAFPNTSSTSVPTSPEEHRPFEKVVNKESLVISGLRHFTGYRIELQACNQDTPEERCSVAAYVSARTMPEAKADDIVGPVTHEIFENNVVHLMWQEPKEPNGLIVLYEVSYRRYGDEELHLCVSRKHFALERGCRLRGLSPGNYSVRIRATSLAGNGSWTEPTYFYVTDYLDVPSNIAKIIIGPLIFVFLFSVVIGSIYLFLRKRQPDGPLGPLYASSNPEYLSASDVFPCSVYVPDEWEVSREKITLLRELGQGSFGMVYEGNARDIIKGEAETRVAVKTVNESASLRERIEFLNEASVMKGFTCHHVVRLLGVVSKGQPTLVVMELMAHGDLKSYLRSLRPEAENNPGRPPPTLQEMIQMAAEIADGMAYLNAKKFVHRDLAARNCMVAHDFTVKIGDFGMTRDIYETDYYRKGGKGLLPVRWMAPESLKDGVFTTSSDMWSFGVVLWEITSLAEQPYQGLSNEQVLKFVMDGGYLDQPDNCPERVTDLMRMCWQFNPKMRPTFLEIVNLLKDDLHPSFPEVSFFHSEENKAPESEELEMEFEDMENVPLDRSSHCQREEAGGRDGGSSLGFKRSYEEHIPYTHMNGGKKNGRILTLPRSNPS

Compound	AUC (0-6 h) of betaine concentrations [1]	betaine yield (concentration of betaine in the incubation medium) [2]	sensitization of the neuronal insulin receptor [3]
C[N+](C)(C)CCO.O=C([O-])C(O)C(O)C(=O)O (stereo not shown) [choline bitartrate]	dicholine succinate>choline bitartrate>choline chloride		
dicholine succinate [DiSu]		higher betaine yields	potent sensitizer
C[N+](C)(C)CCO.[Cl-] [choline chloride]	lowest		

— patent US20240390315A1, “NUTRITIONAL COMPOSITIONS” (MITOCHOLINE Ltd, priority 2021, published 2024)
